Tests used:
Format in all cases: cell-based
[1] = Cytotoxicity against human KBV cells assessed as cell viability at 10 uM incubated for 72 hrs by MTT assay; conditions: read-out: Activity
KBV [2] = assay: Reversal of Pgp-mediated paclitaxel resistance in human KBV cells assessed as cell viability at 10 uM in presence of paclitaxel incubated for 72 hrs by MTT assay
KBV [3] = assay: Reversal of Pgp-mediated paclitaxel resistance in human KBV cells assessed as cell viability at 5 uM in presence of paclitaxel incubated for 72 hrs by MTT assay

Compound	viability at 72 h, 10 µM [1]	Activity (KBV [2]; filed as modulator)	Activity (KBV [3]; filed as modulator)	Activity (KBV [2])	Activity (KBV [3])
CC(C)(C)OC(=O)CC[C@H](NC(=O)OC(C)(C)C)C(=O)O[C@H]1CC[C@]2(C)[C@H]3C[C@@H](O)[C@@H]4[C@@H]([C@]5(C)CC[C@@H](C(C)(C)O)O5)CC[C@@]4(C)[C@]3(C)CC[C@H]2C1(C)C	46%	17%	19%		
CC(C)[C@H](NC(=O)OC(C)(C)C)C(=O)O[C@H]1CC[C@]2(C)[C@H]3C[C@@H](O)[C@@H]4[C@@H]([C@]5(C)CC[C@@H](C(C)(C)O)O5)CC[C@@]4(C)[C@]3(C)CC[C@H]2C1(C)C	128%			110%	106%
C[C@@H](OCc1ccccc1)[C@H](N)C(=O)O[C@H]1CC[C@]2(C)[C@H]3C[C@@H](O)[C@@H]4[C@@H]([C@]5(C)CC[C@@H](C(C)(C)O)O5)CC[C@@]4(C)[C@]3(C)CC[C@H]2C1(C)C	102%	30%	46%		
CC(C)(C)OC(=O)N[C@@H](Cc1cn(C(=O)OC(C)(C)C)c2ccccc12)C(=O)O[C@H]1CC[C@]2(C)[C@H]3C[C@@H](O)[C@@H]4[C@@H]([C@]5(C)CC[C@@H](C(C)(C)O)O5)CC[C@@]4(C)[C@]3(C)CC[C@H]2C1(C)C	137%			147%	138%
CC(C)(O)[C@@H]1CC[C@@](C)([C@H]2CC[C@]3(C)[C@@H]2[C@H](O)C[C@@H]2[C@@]4(C)CC[C@H](OC(=O)[C@@H](N)CCC(=O)O)C(C)(C)[C@@H]4CC[C@]23C)O1	112%			92%	95%
CC(C)(C)OC(=O)NCCCC[C@H](NC(=O)OC(C)(C)C)C(=O)O[C@H]1CC[C@]2(C)[C@H]3C[C@@H](O)[C@@H]4[C@@H]([C@]5(C)CC[C@H](C(C)(C)O)O5)CC[C@@]4(C)[C@]3(C)CC[C@H]2C1(C)C	147%	31%	34%		
CC(C)[C@H](N)C(=O)O[C@H]1CC[C@]2(C)[C@H]3C[C@@H](O)[C@@H]4[C@@H]([C@]5(C)CC[C@H](C(C)(C)O)O5)CC[C@@]4(C)[C@]3(C)CC[C@H]2C1(C)C	84%	23%	33%		
CC(C)(O)[C@H]1CC[C@@](C)([C@H]2CC[C@]3(C)[C@@H]2[C@H](O)C[C@@H]2[C@@]4(C)CC[C@H](OC(=O)CN)C(C)(C)[C@@H]4CC[C@]23C)O1	106%	28%	43%		
CC(C)(O)[C@H]1CC[C@@](C)([C@H]2CC[C@]3(C)[C@@H]2[C@H](O)C[C@@H]2[C@@]4(C)CC[C@H](OC(=O)[C@@H](N)Cc5c[nH]c6ccccc56)C(C)(C)[C@@H]4CC[C@]23C)O1	81%	30%	32%		
CC(C)(C)OC(=O)NCC(=O)O[C@H]1CC[C@]2(C)[C@H]3C[C@@H](O)[C@@H]4[C@@H]([C@]5(C)CC[C@@H](C(C)(C)O)O5)CC[C@@]4(C)[C@]3(C)CC[C@H]2C1(C)C	107%	18%	30%		
CC(C)(O)[C@H]1CC[C@@](C)([C@H]2CC[C@]3(C)[C@@H]2[C@H](O)C[C@@H]2[C@@]4(C)CC[C@H](OC(=O)[C@@H](N)Cc5ccccc5)C(C)(C)[C@@H]4CC[C@]23C)O1	74%	21%	26%		
C[C@@H](OCc1ccccc1)[C@H](NC(=O)OC(C)(C)C)C(=O)O[C@H]1CC[C@]2(C)[C@H]3C[C@@H](O)[C@@H]4[C@@H]([C@]5(C)CC[C@@H](C(C)(C)O)O5)CC[C@@]4(C)[C@]3(C)CC[C@H]2C1(C)C	76%	19%	24%		
C[C@@H](OCc1ccccc1)[C@H](N)C(=O)O[C@H]1CC[C@]2(C)[C@H]3C[C@@H](O)[C@@H]4[C@@H]([C@]5(C)CC[C@H](C(C)(C)O)O5)CC[C@@]4(C)[C@]3(C)CC[C@H]2C1(C)C	20%	18%	31%		
CC(C)(O)[C@@H]1CC[C@@](C)([C@H]2CC[C@]3(C)[C@@H]2[C@H](O)C[C@@H]2[C@@]4(C)CC[C@H](OC(=O)[C@@H](N)CC(=O)O)C(C)(C)[C@@H]4CC[C@]23C)O1	106%			92%	110%
CC(C)(C)OC(=O)C[C@H](NC(=O)OC(C)(C)C)C(=O)O[C@H]1CC[C@]2(C)[C@H]3C[C@@H](O)[C@@H]4[C@@H]([C@]5(C)CC[C@H](C(C)(C)O)O5)CC[C@@]4(C)[C@]3(C)CC[C@H]2C1(C)C	85%	20%	32%		
CC(C)(O)[C@H]1CC[C@@](C)([C@H]2CC[C@]3(C)[C@@H]2[C@H](O)C[C@@H]2[C@@]4(C)CC[C@H](OC(=O)[C@@H](N)Cc5ccc(O)cc5)C(C)(C)[C@@H]4CC[C@]23C)O1	87%	27%	28%		

Compound	viability at 72 h, 10 µM [1]	Activity (KBV [2]; filed as modulator)	Activity (KBV [3]; filed as modulator)	Activity (KBV [2])	Activity (KBV [3])
CC(C)(O)[C@H]1CC[C@@](C)([C@H]2CC[C@]3(C)[C@@H]2[C@H](O)C[C@@H]2[C@@]4(C)CC[C@H](O)C(C)(C)[C@@H]4CC[C@]23C)O1	91%			63%	83%
CC(C)(O)[C@@H]1CC[C@@](C)([C@H]2CC[C@]3(C)[C@@H]2[C@H](O)C[C@@H]2[C@@]4(C)CC[C@H](OC(=O)CN)C(C)(C)[C@@H]4CC[C@]23C)O1	86%			63%	98%
C[C@@H](OCc1ccccc1)[C@H](NC(=O)OC(C)(C)C)C(=O)O[C@H]1CC[C@]2(C)[C@H]3C[C@@H](O)[C@@H]4[C@@H]([C@]5(C)CC[C@H](C(C)(C)O)O5)CC[C@@]4(C)[C@]3(C)CC[C@H]2C1(C)C	138%			144%	138%
CC(C)(C)OC(=O)N[C@@H](Cc1ccc(OC(C)(C)C)cc1)C(=O)O[C@H]1CC[C@]2(C)[C@H]3C[C@@H](O)[C@@H]4[C@@H]([C@]5(C)CC[C@H](C(C)(C)O)O5)CC[C@@]4(C)[C@]3(C)CC[C@H]2C1(C)C	98%			71%	107%
CC(C)(O)[C@H]1CC[C@@](C)([C@H]2CC[C@]3(C)[C@@H]2[C@H](O)C[C@@H]2[C@@]4(C)CC[C@H](OC(=O)[C@@H](N)CC(=O)O)C(C)(C)[C@@H]4CC[C@]23C)O1	95%			61%	106%
CC(C)[C@H](NC(=O)OC(C)(C)C)C(=O)O[C@H]1CC[C@]2(C)[C@H]3C[C@@H](O)[C@@H]4[C@@H]([C@]5(C)CC[C@H](C(C)(C)O)O5)CC[C@@]4(C)[C@]3(C)CC[C@H]2C1(C)C	120%	20%	31%		
CC(C)(C)OC(=O)C[C@H](NC(=O)OC(C)(C)C)C(=O)O[C@H]1CC[C@]2(C)[C@H]3C[C@@H](O)[C@@H]4[C@@H]([C@]5(C)CC[C@@H](C(C)(C)O)O5)CC[C@@]4(C)[C@]3(C)CC[C@H]2C1(C)C	88%	17%	35%		
CC(C)(O)[C@@H]1CC[C@@](C)([C@H]2CC[C@]3(C)[C@@H]2[C@H](O)C[C@@H]2[C@@]4(C)CC[C@H](OC(=O)[C@@H](N)Cc5c[nH]c6ccccc56)C(C)(C)[C@@H]4CC[C@]23C)O1	52%	27%	30%		
CC(C)(C)OC(=O)N[C@@H](Cc1ccccc1)C(=O)O[C@H]1CC[C@]2(C)[C@H]3C[C@@H](O)[C@@H]4[C@@H]([C@]5(C)CC[C@H](C(C)(C)O)O5)CC[C@@]4(C)[C@]3(C)CC[C@H]2C1(C)C	125%	25%	48%		
CC(C)(C)OC(=O)NCCCC[C@H](NC(=O)OC(C)(C)C)C(=O)O[C@H]1CC[C@]2(C)[C@H]3C[C@@H](O)[C@@H]4[C@@H]([C@]5(C)CC[C@@H](C(C)(C)O)O5)CC[C@@]4(C)[C@]3(C)CC[C@H]2C1(C)C	123%	21%	28%		
CC(C)(O)[C@@H]1CC[C@@](C)([C@H]2CC[C@]3(C)[C@@H]2[C@H](O)C[C@@H]2[C@@]4(C)CC[C@H](OC(=O)[C@@H](N)CCCCN)C(C)(C)[C@@H]4CC[C@]23C)O1	81%			82%	98%
CC(C)(C)OC(=O)NCC(=O)O[C@H]1CC[C@]2(C)[C@H]3C[C@@H](O)[C@@H]4[C@@H]([C@]5(C)CC[C@H](C(C)(C)O)O5)CC[C@@]4(C)[C@]3(C)CC[C@H]2C1(C)C	106%	22%	28%		
CC(C)(O)[C@@H]1CC[C@@](C)([C@H]2CC[C@]3(C)[C@@H]2[C@H](O)C[C@@H]2[C@@]4(C)CC[C@H](O)C(C)(C)[C@@H]4CC[C@]23C)O1	81%			72%	74%
CC(C)(C)OC(=O)CC[C@H](NC(=O)OC(C)(C)C)C(=O)O[C@H]1CC[C@]2(C)[C@H]3C[C@@H](O)[C@@H]4[C@@H]([C@]5(C)CC[C@H](C(C)(C)O)O5)CC[C@@]4(C)[C@]3(C)CC[C@H]2C1(C)C	82%	19%	31%		
CC(C)(C)OC(=O)N[C@@H](Cc1ccc(OC(C)(C)C)cc1)C(=O)O[C@H]1CC[C@]2(C)[C@H]3C[C@@H](O)[C@@H]4[C@@H]([C@]5(C)CC[C@@H](C(C)(C)O)O5)CC[C@@]4(C)[C@]3(C)CC[C@H]2C1(C)C	104%	22%			78%
